Laboratory results taken from patent US20250324972A1, “METHOD OF CONTROLLING NEMATODES” (priority 2022, published 2025).

Columns and labels:
root-knot nematode = experiment: Open field trial on tomato: root galling assessed with the root galling index (Bridge and Page chart); assay type: in vivo
Source text: The rating method is based on assigning an integer number in the interval from 0 (no knots on the roots) to 10 (all roots severely knotted indicative of plant death).
Treatments 2 and 3 (of the invention): fluensulfone in the form of an emulsifiable concentrate (Nimitz® 480 EC) was applied at the day of planting (DAT=0), followed by a post-plant application twenty five days later (DAT=25). The application method consisted of the following steps. First, the soil was wetted by irrigation water. Then, at the day of planting, appropriate amounts of Nimitz® 480 EC were diluted in water and applied to achieve the application rates tabulated in Table 1. […]
Root galling was assessed in the open-field trial, on DAT=25, 50, and 75, using the root galling index. […]

[1] = tested on: Tomatoes of Aryman variety; experiment: Open field trial on tomato: phytotoxicity evaluation; assay type: in vivo
Procedure: An open field trial was conducted. Tomatoes of Aryman variety was used. The soil type was sandy loam.
Fertilizers were applied prior to bed formation. Plots were formed, with a total area of 25 m^2 per plot. Drip lines were laid in the plot beds (plot beds occupy half the field). Treatments were arranged in a randomized complete block design with two replications.
Fluensulfone emulsifiable concentrate (Nimitz® 480 EC) was used for the fluensulfone treatments. Additionally, comparative nematicides fluopyram (as Fluopyram® 500 SC) and carbofuran (as Carbofuran® 3% CG), were tested. Untreated control plots were formed for comparison.
In Table 1, time of application is expressed by DAT, which indicates the number of days relative to the date of planting.
Treatments 2 and 3 (of the invention): fluensulfone in the form of an emulsifiable concentrate (Nimitz® 480 EC) was applied at the day of planting (DAT=0), followed by a post-plant application twenty five days later (DAT=25). The application method consisted of the following steps. First, the soil was wetted by irrigation water. Then, at the day of planting, appropriate amounts of Nimitz® 480 EC were diluted in water and applied to achieve the application rates tabulated in Table 1. It was repeated on DAT=25. […]
Phytotoxicity was evaluated on DAT=7, 21, 32, and 46. […]

SMILES: O=S(=O)(CCC(F)=C(F)F)c1ncc(Cl)s1 [fluensulfone, 5-chloro-2-(3,4,4-trifluoro-but-3-ene-1-sulfonyl)-1,3-thiazole]
- average root galling indexes (RGI) (root-knot nematode; application initiated on the day of planting/transplanting, even seventy days after planting/transplanting): below 3
- root galling index (root-knot nematode; method of the invention, at least over 50 days and even 75 days after planting): below 2
- Phytotoxicity ([1]; entire range of application rates tested, evaluated on DAT=7, 21, 32, and 46): No phytotoxicity was observed

SMILES: O=C(NCCc1ncc(C(F)(F)F)cc1Cl)c1ccccc1C(F)(F)F [fluopyram]
- Phytotoxicity score ([1]; evaluated on DAT=7, 21, 32, and 46, fluopyram 500 SC 0 DAT @ 1250 ml/ha): 65
